# pEC50, pIC50: −log10 of the molar value. “And” between values parts separate entries of the source, which are not always exact repeats. Equal entries are not always repeated. Where two headings read alike, the source gives them in different places.
# Assays:
# [1] = system: mitochondrial protein synthesis in H9C2 cells; assay: Mitochondrial protein synthesis assay (COX-1/SDH-A In-Cell ELISA); type: cell-based; settings: COX-1/SDH-A ratio, average of three experiments
# [2] = system: L. donovani promastigotes; assay: Leishmania promastigote viability assay; type: cell-based, Leishmania donovani; settings: Leishmania donovani
# Procedure: After suitable sample preparation, the
# In vivo Leishmaniasis Animal Model […]
# administered twice daily over the same interval.
# Parasite load is expressed in Leishman-
# Knock-out and overexpressor generation
# Leishmania Promastigote Assay
# Serum shift experiments were […]
# (§1) carried out as described above using 5%, 10% and 20% FBS in the media. To examine the effect of the methionine concentration on the potency of DDD806905 parasites were grown in the presence of drug and in the presence (or absence) of 20-fold excess methionine (0.3 g/l). IC50 curve fitting was undertaken in GraFit version 6.0 (Erithacus Software) using a four-parameter logistic dose-response curve (equation 6), with s the slope.
# (§2) Leishmania Axenic Amastigote Assay
# (§3) The Leishmania axenic amastigote assay was performed using the method published in Nühs et al 15.
# (§4) Leishmania Intracellular Amastigote Assay
# (§5) The intramacrophage Leishmania assay was performed using a modified version of the method described in De Rycker et al 16. […]
# (§6) amphotericin B was included. Controls were as follows: columns 11 and 12: DMSO, columns 23 and 24: amphotericin B (final concentration 2 µM). 350 nl of compound was pre-dispensed into 384-well sterile intermediary plates. To the intermediary plates, 35 µl of THP-1 media was added and plates were shaken for >5 min to ensure complete mixing. THP-1 cells (8,000 per well, 50 µl) were plated into black clear-bottom 384-well plates (Corning) in presence of 20 nM phorbol 12-myristate 13-
# [3] = pKa measurement (Sirius T3, UV-metric); type: physicochemical
# Procedure: calculated, both in terms of pEC50 values. MIC (minimum inhibitory concentration) values are defined as the lowest concentration tested at which maximal inhibition is reached.
# THP-1 cells were differentiated in 96-well plates with PMA as described above. Following differentiation the cells were treated for 30 min with dose-response curves of test compounds in presence of 100 nM LysoTracker Red DND-99 (Thermo Fisher) and 5 µg/ml Hoechst 33342. Next cells were washed 3 times with Hanks Buffered Saline Solution (Gibco) and imaged on a Perkin Elmer Operetta system. An image analysis algorithm to measure mean Lysotracker Red DND-99 intensity per cell was developed in Columbus. […]
# To measure the pKa of DDD806905, a fast UV-metric method was performed using a Sirius T3 instrument (Sirius Analytical, U.K.). The calculation of the pKa was determined using the Sirius T3 refine software (Sirius Analytical, U.K.). In brief, the UV-metric pKa method is based on measuring pH during an acid-base titration and monitoring UV absorbance shift. […] The appearance of precipitate was monitored throughout the experiment by a turbidity sensing device. […] The pKas of DDD806905 was determined at the pH where there was maximal change in UV absorbance with respect to pH. […]
# LogD7.4 values were quantified using a Sirius T3 instrument (Sirius Analytical, U.K.). […]
# [4] = system: Leishmania donovani liver parasite burden; assay: Mouse visceral leishmaniasis efficacy model; settings: 50 mg/kg oral twice daily for 10 days, 50 mg/kg
# [5] = system: L. donovani intracellular amastigote; assay: Leishmania intracellular amastigote assay; type: cell-based
# Procedure: as §1, §2, §3, §4, §5
# as §6, with “13- […]” for “13-”
# in a humidified incubator for 75 h. The cells were then washed with 450 µl sterile phosphate buffered saline (PBS) supplemented with 1 mM CaCl2, 0.5 mM MgCl2, 0.1% (w/v) bovine serum albumin (PBS-A) and amastigotes were added to all wells at a multiplicity of infection of 5 (40,000 amastigotes per well). After 40 min at room temperature, plates were returned to the incubator.
# Amastigotes were incubated in the presence of THP-1 macrophages for 16 h. Any remaining extracellular amastigotes were subsequently removed by washing with PBS-A followed by addition of 25 µl of the compound pre-dilutions using an Ipette-pro pipetting station (FluidX). The final dilution of each compound was 200-fold. […] For each well, i) THP-1 cell count (cytotoxicity readout) and ii) average number of amastigotes per cell (potency readout) were […]
# calculated, both in terms of pEC50 values. […]
smiles,measurement,setting,value
"Cl.Cl.O=c1nc(NCCCNCc2cc3c(Cl)cc(Cl)cc3[nH]2)[nH]c2ccccc12 [DDD806905, 2-((3-(((4,6-dichloro-1H-indol-2-yl)methyl)amino)propyl)amino)quinazolin-4(1H)-one dihydrochloride]",pIC50,[1]; H9C2 cells,5.77
same,pIC50,"[1]; Rattus norvegicus, H9c2, H9C2 cells",5.77
same,pEC50,"[2]; 10% serum, read-out: promastigote EC50",6.57
same,pEC50,"[2]; Supplementary Table 1, read-out: Leishmania Promastigote EC50",6.36
same,pEC50,"[2]; absence of excess methionine, read-out: promastigote EC50",6.34
same,pEC50,"[2]; extrapolated to 100% serum, read-out: predicted promastigote EC50",5.76
same,pEC50,"[2]; extrapolated to no serum, read-out: predicted promastigote EC50",6.92
same,pEC50,"[2]; presence of excess methionine (2 mM), read-out: promastigote EC50",5.72
same,compound present in un-ionized state,[3]; pH 5.6,~0%
same,compound present in un-ionized state,[3]; pH 7.3,0.01%
same,reduction (knock-down) of liver parasite burden (LDU) vs vehicle,[4],19% and 19.4%
same,pEC50,"[5]; in THP-1 macrophages, read-out: intracellular amastigote EC50",5.54
same,MIC,"[5]; intracellular assay, lowest concentration with maximal inhibition, read-out: MIC (minimum inhibitory concentration)",4.3 µM
same,pEC50,"[5]; representative curve, n=8 technical replicates, read-out: intracellular amastigote EC50, representative potency determination",5.55
